Laboratory results reported in the RepoRT retention time repository (doi:10.1016/j.aca.2011.12.065).
Counter-ions that a name gives are not always drawn.

Assay: RP, Waters ACQUITY UPLC BEH C18, 100 × 2.1 mm, 1.7 µm; A: water + 0.1% formic acid, pH 3; B: 80% acetonitrile + 20% acetone + 0.1% formic acid, pH 3; gradient (min/%B) 0/0 6/100
Details: stereoisomer not certain

Structure (SMILES)	LC retention time [min]
NC(Cc1ccccc1)C(=O)NC(CC(=O)O)C(=O)O (stereo not drawn) [phe-asp]	1.54
CC(O)CC(=O)[O-] (stereo not drawn) [beta-hydroxybutyric acid]	1.78
O=C(O)CNC(=O)C=Cc1c[nH]c2ccccc12 [INDOLE-3-ACRYLOYLGLYCINE]	2.13
CC12C=CC(=O)C=C1CCC1C2C(O)CC2(C)C1CCC2(O)C(=O)CO (stereo not drawn) [Prednisolone]	2.65
CC(C)CC(=O)C(=O)O [2-Oxo-4-methylpentanoic acid]	1.99
CCCC(=O)C(=O)O [2-Oxovaleric acid]	1.62
CCC(C)C1NC(=O)C(CC(=O)O)NC1=O (stereo not drawn) [Cyclic(asp-ile)]	1.65
Nc1ccc(OS(=O)(=O)O)cc1 [4-Aminophenyl hydrogen sulfate]	0.641
CCC=CCC=CCC=CCC=CCC=CCCCC(=O)OCC(O)COP(=O)([O-])OCC[N+](C)(C)C (stereo not drawn) [LPC(20:5)_enz]	4.02
CC(C)C(N)C(=O)O (stereo not drawn) [Valine]	0.798
CCC(C)C(NC(=O)C1CCC(=O)N1)C(=O)O (stereo not drawn) [pglu-ile]	1.83
CC[C@@H](O)C(=O)[O-] [(R)-2-hydroxybutyric acid]	1.4
Cc1ncc(C[n+]2csc(CCOP(=O)(O)O)c2C)c(N)n1 [Thiamine monophosphate Cloride dihydrat]	0.595
CC(C)CC(N)C(=O)NC(CC(=O)O)C(=O)O (stereo not drawn) [leu-asp]	0.6
CCCCCCCCCCCCCCCCC=COCC(O)COP(=O)([O-])OCC[N+](C)(C)C (stereo not drawn)	4.95
CCC(C)C(NC(=O)C(N)CC(=O)O)C(=O)O (stereo not drawn) [asp-ile]	0.6
CC12CCC(=O)C=C1CCC1C2CCC2(C)C1CCC2(O)C(=O)CO (stereo not drawn) [11-Deoxy-17-hydroxycorticosterone]	3.04
CC(O)C(C)C(=O)O (stereo not drawn) [3-Hydroxy-2-methylbutyric acid]	1.51
O=C(O)CCc1ccc(O)c(O)c1 [3,4-dihydroxyhydrocinnamic acid]	1.69

Structure (SMILES)	LC retention time [min]
O=C(O)CC(NC(=O)C1CCC(=O)N1)C(=O)O (stereo not drawn) [pglu-asp]	0.6
Nc1ccc(O)cc1 [4-aminophenol]	0.641
CC(CO)C(=O)O (stereo not drawn) [beta-hydroxyisobutyric acid]	1.4
CC(C)C1NC(=O)C(CCC(=O)O)NC1=O (stereo not drawn) [Cyclic(glu-val)]	1.5
CCCCCCCCCCCCCCCC(=O)OCC(COP(=O)([O-])OCC[N+](C)(C)C)OC(=O)CCCC(=O)O (stereo not drawn) [PGPC]	4.52
CC(=O)C(C)C(=O)O (stereo not drawn) [2-methylacetoacetic acid]	1.61
CC(C)C(=O)C(=O)O [Alpha-ketoisovaleric acid]	1.45
CC(O)C1CCC2C3CCC4CC(=O)CCC4(C)C3CCC12C (stereo not drawn) [20-beta-Hydroxy-5-alpha-pregnan-3-one]	4.33
Nc1ccccc1C(=O)CC(N)C(=O)O (stereo not drawn) [l-kynurenine]	1.34
CC(C)C(N)C(=O)NC(Cc1ccccc1)C(=O)O (stereo not drawn) [Val-Phe]	1.7
CC(C)C1NC(=O)C2CCCN2C1=O (stereo not drawn) [Cyclic(pro-val)]	1.74
CC(C)C(NC(=O)C(N)CCC(=O)O)C(=O)O (stereo not drawn) [glu-val]	1.32
O=Cc1c[nH]c2ccccc12 [indole-3-carbaldehyde]	2.27
CC12CCc3occc3C1CCC13CC(CCC12)C(O)(CO)C3 (stereo not drawn) [Cafestol (10x dilute)]	3.19
O=C(O)CCCO [gamma-hydroxybutyric acid]	1.07
CNC(CC(=O)O)C(=O)O (stereo not drawn) [N-methyl-aspartic acid]	0.58
O=C(O)Cc1c[nH]c2ccc(O)cc12 [5-hydroxyindole-3-acetic acid]	1.61
CCC(C)(O)C(=O)O (stereo not drawn) [2-Hydroxy-2-methylbutyric acid]	1.63
O=C(O)CCC1NC(=O)C2CCCN2C1=O (stereo not drawn) [Cyclic(glu-pro)]	1.43
